ChEMBL document CHEMBL5154725, “SAR evolution towards potent C-terminal carboxamide peptide inhibitors of Zika virus NS2B-NS3 protease” (Bioorg Med Chem, 2022)
pIC50: −log10 of the molar value. Non-standard residues stand in square brackets, D forms with d. Residues, ends and D or L forms follow the SMILES beside them. *: point of attachment. Phe(4-CONH2) = NC(=O)c1ccc(C[C@H](N)C(=O)O)cc1; Phe(4-CH2NH2) = NCc1ccc(C[C@H](N)C(=O)O)cc1; AEF = NCCOc1ccc(C[C@H](N)C(=O)O)cc1; Lys(Me2) = CN(C)CCCC[C@H](N)C(=O)O; Cit = NC(=O)NCCC[C@H](N)C(=O)O; NHPhenethyl = c1ccc(CCN*)cc1; hLys = NCCCCC[C@H](N)C(=O)O; Orn = NCCC[C@H](N)C(=O)O; Dab = NCC[C@H](N)C(=O)O; PhAc = O=C(Cc1ccccc1)*

Experiment: Inhibition of 6-His tagged-G4SG4 fused ZIKV NS2B (49 to 95 residues) R95A mutant-NS3 (1 to 170 residue) R29G mutant expressed in Escherichia coli BL21 (DE3) using Bz-Nle-K-RR-AMC substrate preincubated for 10 mins followed by substrate addition and measured after 30 mins by fluorescence assay
Set-up: species or system Zika virus
Compound N=C(N)NCCC[C@H](NC(=O)c1cccs1)C(=O)N[C@@H](CCCCN)C(=O)N[C@H](C(N)=O)c1ccc(OCc2ncco2)cc1 has a pIC50 of under 4.00.
With N=C(N)NCCC[C@H](NC(=O)[C@H](CCCCN)NC(=O)[C@H](CCCCN)NC(=O)C(F)c1ccccc1)C(N)=O (mixture of isomers) the pIC50 was 5.31.
In the case of NCCCC[C@H](NC(=O)Cc1ccccc1)C(=O)N[C@@H](CCCCN)C(=O)N[C@@H](C(N)=O)c1ccccc1, the pIC50 was 4.82.
N=C(N)NCCC[C@H](NC(=O)c1cccs1)C(=O)N[C@@H](CCCCN)C(=O)N[C@H](C(N)=O)c1ccc(OCCc2ccccc2)cc1 showed a pIC50 of 5.03.
In the case of N=C(N)NCCC[C@H](NC(=O)[C@H](CCCNC(N)=O)NC(=O)[C@H](CCCCN)NC(=O)Cc1ccccc1)C(N)=O (PhAc-Lys-[Cit]-Arg-NH2), the pIC50 was under 4.00.
In the case of N=C(N)NCCC[C@H](NC(=O)[C@H](CCCCN)NC(=O)[C@H](CCCCN)NC(=O)Cc1ccccc1)C(=O)O (PhAc-Lys-Lys-Arg-OH), the pIC50 was 4.39.
Work on CCOc1ccc([C@H](NC(=O)[C@H](CCCCN)NC(=O)[C@H](CCCNC(=N)N)NC(=O)c2cccs2)C(N)=O)cc1 yielded a pIC50 of 4.75.
Work on CC(NC(=O)[C@H](CCCCN)NC(=O)[C@H](CCCNC(=N)N)NC(=O)c1cccs1)c1ccc(OCc2ccc(C(F)(F)F)cc2)cc1 (mixture of isomers) yielded a pIC50 of 4.96.
For N=C(N)NCCC[C@H](NC(=O)c1cccs1)C(=O)N[C@@H](CCCCN)C(=O)N[C@H](C(N)=O)c1ccc(OCc2ccncc2)cc1, the pIC50 was 4.92.
In the case of NCCCC[C@H](NC(=O)Cc1ccccc1)C(=O)N[C@@H](CCCCN)C(=O)N[C@H](C(=O)NCc1ccc(O)cc1)c1ccccc1, the pIC50 was 6.43.
For N=C(N)NCCC[C@H](NC(=O)c1cccs1)C(=O)N[C@@H](CCCCN)C(=O)N[C@H](C(N)=O)c1ccc(OCc2ccc(C(F)(F)F)cc2)cc1, the pIC50 was 5.60.
CN(C)Cc1ccc(CNC(=O)[C@H](CCCNC(=N)N)NC(=O)[C@H](CCCCN)NC(=O)[C@H](CCCCN)NC(=O)Cc2ccccc2)cc1 gave a pIC50 of 5.55.
In the case of N=C(N)NCCC[C@H](NC(=O)c1cccs1)C(=O)N[C@@H](CCCCN)C(=O)N[C@H](C(N)=O)c1ccc(OCc2ccccc2)cc1, the pIC50 was 5.12.
In the case of N=C(N)NCCC[C@H](NC(=O)[C@H](CCCCN)NC(=O)[C@H](CCCCN)NC(=O)Cc1ccccc1)C(=O)NCC1CCCCC1, the pIC50 was 5.74.
N#Cc1ccc(COc2ccc([C@H](NC(=O)[C@H](CCCCN)NC(=O)[C@H](CCCNC(=N)N)NC(=O)c3cccs3)C(N)=O)cc2)cc1 gave a pIC50 of 4.56.
Work on CN(C)CCOc1ccc([C@H](NC(=O)[C@H](CCCCN)NC(=O)[C@H](CCCNC(=N)N)NC(=O)c2cccs2)C(N)=O)cc1 yielded a pIC50 of 5.26.
CN(Cc1ccccc1)C(=O)[C@H](CCCNC(=N)N)NC(=O)[C@H](CCCCN)NC(=O)[C@H](CCCCN)NC(=O)Cc1ccccc1 showed a pIC50 of 4.15.
With N=C(N)NCCC[C@H](NC(=O)[C@H](CCN)NC(=O)[C@H](CCCCN)NC(=O)Cc1ccccc1)C(N)=O (PhAc-Lys-[Dab]-Arg-NH2) the pIC50 was 6.35.
Work on N=C(N)NCCC[C@H](NC(=O)c1cccs1)C(=O)N[C@@H](CCCCN)C(=O)N[C@H](C(N)=O)c1ccc(OC2CCc3ccccc32)cc1 (mixture of isomers) yielded a pIC50 of 5.19.
In the case of NCCCC[C@H](NC(=O)Oc1ccccc1)C(=O)N[C@@H](CCCCN)C(=O)N[C@H](C(=O)NCc1ccccc1)c1ccc(OCc2ccc(C(F)(F)F)cc2)cc1, the pIC50 was 6.08.
CNC(=O)[C@@H](NC(=O)[C@H](CCCCN)NC(=O)[C@H](CCCCN)NC(=O)Cc1ccccc1)c1ccc(OCc2ccc(C(F)(F)F)cc2)cc1 gave a pIC50 of 5.55.
NCCCC[C@H](NC(=O)Cc1ccccc1)C(=O)N[C@@H](CCCCN)C(=O)N[C@H](C(=O)NC1Cc2ccccc2C1)c1ccc(OCc2ccc(C(F)(F)F)cc2)cc1 showed a pIC50 of 5.70.
Work on NCCCC[C@H](NC(=O)Cc1ccccc1)C(=O)N[C@@H](CCCCN)C(=O)N[C@H](C(=O)NCc1ccccc1)c1ccccc1 yielded a pIC50 of 6.26.
In the case of N=C(N)NCCC[C@H](NC(=O)[C@H](CC1CCNCC1)NC(=O)[C@H](CCCCN)NC(=O)Cc1ccccc1)C(N)=O, the pIC50 was 4.91.
Work on NCCCC[C@H](NC(=O)CC1CCCCC1)C(=O)N[C@@H](CCCCN)C(=O)N[C@H](C(=O)NCc1ccccc1)c1ccc(OCc2ccc(C(F)(F)F)cc2)cc1 yielded a pIC50 of 6.82.
For N=C(N)NCCC[C@H](NC(=O)[C@H](CCCCN)NC(=O)[C@H](Cc1ccc(CN)cc1)NC(=O)Cc1ccccc1)C(N)=O (PhAc-[Phe(4-CH2NH2)]-Lys-Arg-NH2), the pIC50 was 5.07.
NCCCC[C@H](NC(=O)Cc1ccccc1)C(=O)N[C@@H](CCCCN)C(=O)N[C@H](C(N)=O)c1ccccc1 gave a pIC50 of 5.15.
Work on N=C(N)NCCC[C@H](NC(=O)Cc1ccccc1)C(=O)N[C@@H](CCCCN)C(=O)N[C@H](C(N)=O)c1ccc(OCc2ccc(C(F)(F)F)cc2)cc1 yielded a pIC50 of 4.50.
Compound N=C(N)NCCC[C@H](NC(=O)[C@H](CCCCN)NC(=O)[C@H](CCCCN)NC(=O)Cc1ccccc1)C(=O)NCCc1ccccc1 (PhAc-Lys-Lys-Arg-NHPhenethyl) has a pIC50 of 4.94.
NCCCC[C@H](NC(=O)c1cccs1)C(=O)N[C@@H](CCCCN)C(=O)N[C@H](C(=O)NCc1ccc(OCc2ccc(C(F)(F)F)cc2)cc1)c1ccccc1 gave a pIC50 of 6.70.
With N=C(N)NCCC[C@H](NC(=O)c1cccs1)C(=O)N[C@@H](CCCCN)C(=O)N[C@H](C(N)=O)c1ccc(OCc2ccccc2C(F)(F)F)cc1 the pIC50 was 5.15.
N=C(N)NCCC[C@H](NC(=O)[C@H](CCCCCN)NC(=O)[C@H](CCCCN)NC(=O)Cc1ccccc1)C(N)=O (PhAc-Lys-[hLys]-Arg-NH2) gave a pIC50 of 5.57.
Compound NCCCC[C@H](NC(=O)Cc1ccccc1)C(=O)N[C@@H](CCCCN)C(=O)N[C@H](C(=O)NCCc1ccccc1)c1ccc(OCc2ccc(C(F)(F)F)cc2)cc1 has a pIC50 of 6.21.
Compound COc1ccc([C@H](NC(=O)[C@H](CCCCN)NC(=O)[C@H](CCCNC(=N)N)NC(=O)c2cccs2)C(N)=O)cc1 has a pIC50 of 4.35.
In the case of N=C(N)NCCC[C@H](NC(=O)[C@H](CCCCN)NC(=O)[C@H](Cc1ccccc1)NC(=O)Cc1ccccc1)C(N)=O (PhAc-Phe-Lys-Arg-NH2), the pIC50 was 4.46.
For CN1CCC(CNC(=O)[C@H](CCCNC(=N)N)NC(=O)[C@H](CCCCN)NC(=O)[C@H](CCCCN)NC(=O)Cc2ccccc2)CC1, the pIC50 was 5.11.
Work on N=C(N)NCCC[C@H](NC(=O)[C@H](CCCN)NC(=O)[C@H](CCCCN)NC(=O)Cc1ccccc1)C(N)=O (PhAc-Lys-[Orn]-Arg-NH2) yielded a pIC50 of 5.41.
Work on NCCCC[C@H](NC(=O)Cc1ccccc1)C(=O)N[C@@H](CCCCN)C(=O)N[C@H](C(=O)NCC1CCCCC1)c1ccccc1 yielded a pIC50 of 6.16.
Work on NCCCC[C@H](NC(=O)Nc1ccccc1)C(=O)N[C@@H](CCCCN)C(=O)N[C@H](C(=O)NCc1ccccc1)c1ccc(OCc2ccc(C(F)(F)F)cc2)cc1 yielded a pIC50 of 6.80.
N=C(N)NCCC[C@H](NC(=O)[C@H](CCCCN)NC(=O)[C@H](CCCCN)NC(=O)Cc1nccs1)C(N)=O gave a pIC50 of 4.64.
N=C(N)NCC[C@H](NC(=O)[C@H](CCCCN)NC(=O)[C@H](CCCCN)NC(=O)Cc1ccc(Cl)c(Cl)c1)C(=O)NCC1CCCCC1 gave a pIC50 of 5.77.
For N=C(N)NCCC[C@H](NC(=O)c1cccs1)C(=O)N[C@@H](CCCCN)C(=O)N[C@H](C(=O)NCc1ccccc1)c1ccc(OCc2ccc(C(F)(F)F)cc2)cc1, the pIC50 was 6.51.
Work on CN(C)CCCC[C@H](NC(=O)[C@H](CCCCN)NC(=O)Cc1ccccc1)C(=O)N[C@@H](CCCNC(=N)N)C(N)=O (PhAc-Lys-[Lys(Me2)]-Arg-NH2) yielded a pIC50 of 4.60.
Work on N=C(N)NCCC[C@H](NC(=O)[C@H](CCCCN)NC(=O)[C@H](CCCCN)NC(=O)Cc1ccc(-c2ccccc2)cc1)C(N)=O yielded a pIC50 of 5.81.
Compound N=C(N)NCCC[C@H](NC(=O)[C@H](Cc1ccc(C(N)=O)cc1)NC(=O)[C@H](CCCCN)NC(=O)Cc1ccccc1)C(N)=O (PhAc-Lys-[Phe(4-CONH2)]-Arg-NH2) has a pIC50 of under 4.00.
CN(Cc1ccccc1)C(=O)[C@@H](NC(=O)[C@H](CCCCN)NC(=O)[C@H](CCCCN)NC(=O)Cc1ccccc1)c1ccc(OCc2ccc(C(F)(F)F)cc2)cc1 showed a pIC50 of 5.33.
Compound N=C(N)NCCC[C@H](NC(=O)c1cccs1)C(=O)N[C@@H](CCCCN)C(=O)N[C@H](C(N)=O)c1ccc(OCCN2CCOCC2)cc1 has a pIC50 of 4.66.
Compound N=C(N)NCCC[C@H](NC(=O)[C@H](CCCCN)NC(=O)[C@H](CCCCN)NC(=O)Cc1ccc(Cl)c(Cl)c1)C(N)=O has a pIC50 of 5.91.
Compound N=C(N)NCCC[C@H](NC(=O)c1cccs1)C(=O)N[C@@H](CCCCN)C(=O)N[C@H](C(N)=O)c1ccc(OCC2CCCCC2)cc1 has a pIC50 of 4.96.
N=C(N)NCCC[C@H](NC(=O)[C@H](CCCCN)NC(=O)[C@H](CCCCN)NC(=O)Cc1ccccc1)C(=O)NCc1ccncc1 gave a pIC50 of 4.85.
NCCCC[C@H](NC(=O)Cc1ccccc1)C(=O)N[C@@H](CCCCN)C(=O)N[C@H](C(=O)NCC1CCNCC1)c1ccc(OCc2ccc(C(F)(F)F)cc2)cc1 gave a pIC50 of 6.46.
With COc1ccc(CNC(=O)[C@@H](NC(=O)[C@H](CCCCN)NC(=O)[C@H](CCCCN)NC(=O)Cc2ccccc2)c2ccc(OCc3ccc(C(F)(F)F)cc3)cc2)cc1 the pIC50 was 6.89.
With NCCCC[C@H](NC(=O)Cc1ccc(Cl)c(Cl)c1)C(=O)N[C@@H](CCCCN)C(=O)N[C@H](C(=O)NCc1ccc(OCc2ccc(C(F)(F)F)cc2)cc1)c1ccccc1 the pIC50 was 6.77.
In the case of NCCCC[C@H](NC(=O)Cc1ccccc1)C(=O)N[C@@H](CCCCN)C(=O)N[C@H](C(=O)NCc1ccc(Cl)cc1)c1ccc(OCc2ccc(C(F)(F)F)cc2)cc1, the pIC50 was 6.80.
For NCCCC[C@H](NC(=O)Cc1ccccc1)C(=O)N[C@@H](CCCCN)C(=O)N[C@H](C(=O)NCc1cccc(OCc2ccc(C(F)(F)F)cc2)c1)c1ccccc1, the pIC50 was 6.62.
In the case of NCCCC[C@H](NC(=O)Cc1ccccc1)C(=O)N[C@@H](CCCCN)C(=O)N[C@H](C(=O)NCc1ccc(OCc2ccc(C(F)(F)F)cc2)cc1)c1ccccc1, the pIC50 was 6.85.
With N=C(N)NCCC[C@H](NC(=O)[C@H](CCCCN)NC(=O)[C@H](Cc1ccc(OCCN)cc1)NC(=O)Cc1ccccc1)C(N)=O (PhAc-[AEF]-Lys-Arg-NH2) the pIC50 was 4.51.
N=C(N)NCCC[C@H](NC(=O)c1cccs1)C(=O)N[C@@H](CCCCN)C(=O)N[C@H](C(N)=O)c1ccc(O)cc1 gave a pIC50 of 4.99.
In the case of N=C(N)NCCC[C@H](NC(=O)[C@H](CCCCN)NC(=O)[C@H](CCCCN)NC(=O)Cc1ccncc1)C(N)=O, the pIC50 was 5.28.
Work on N=C(N)NCCC[C@H](NC(=O)[C@H](CCCCN)NC(=O)[C@H](CCCCN)NC(=O)C1(c2ccccc2)CC1)C(N)=O yielded a pIC50 of 5.00.
